Patent US5726155A, “Regulation of oxidative burst using LMWG-derived peptides and analogs” (The Scripps Research Institute, priority 1993, dated 1998)
Where no end group is shown, it is not given here.

Columns and labels:
NADPH oxidase [1] = assay: cell-free NADPH oxidase assay with GAP proteins; assay type: biochemical, human
Method: Subcellular fractions from human neutrophils for use in cell-free NADPH oxidase assays were prepared as described previously (Curnutte, et al., PNAS USA 86: 825-829 (1989)). Cell-free oxidase assays were conducted as described in Heyworth, et al., Mol. Biol. Cell 4: 261-269 (1993) and Curnutte, et al., Id. (1989). In order to deplete endogenous guanine nucleotides for some experiments, cytosol was dialyzed overnight against three 2-liter volumes of 100 mM KCl/3 mM NaCl/3.5 mM MgCl2 /10 mM PIPES, pH 7.3, as previously described (Peveri, et al., PNAS USA 89: 2494-2498 (1992)). Reaction mixtures contained 4×10^5 cell equivalents (cell eq) of human neutrophil membranes and 1.8×10^6cell eq of neutrophil cytosol. Reactions were performed in the absence of GTPγS, unless otherwise indicated (see FIGS. 3, 7, 8, and 9, and accompanying legends), and with the indicated concentrations of p190 GAP. Rates of O2^- production were calculated from maximum rates of absorbance change after initiation of the reaction with 110 μM SDS.

NADPH oxidase [2] = molecular target: T1, NADPH oxidase (Homo sapiens, UniProt P04839+P13498+P14598+P19878); assay: cell-free NADPH oxidase assay (O2- production), inhibition by peptides; assay type: biochemical; settings: for Inhibitory Activity: Table 3, peptide incubated five minutes before 90 μM SDS or 100 μM arachidonic acid; for Percent Inhibition: cell-free system
T1 construct: 4×10^5 cell equivalents (cell eq) of neutrophil membranes; of neutrophil cytosol, or (2) 100 nM each of baculovirus recombinant p47-phox and p67-phox; from tissue; host or cells: neutrophil membranes and cytosol (human neutrophils, leukapheresis or blood)
T1 sequence (P04839 2-570 limits assumed): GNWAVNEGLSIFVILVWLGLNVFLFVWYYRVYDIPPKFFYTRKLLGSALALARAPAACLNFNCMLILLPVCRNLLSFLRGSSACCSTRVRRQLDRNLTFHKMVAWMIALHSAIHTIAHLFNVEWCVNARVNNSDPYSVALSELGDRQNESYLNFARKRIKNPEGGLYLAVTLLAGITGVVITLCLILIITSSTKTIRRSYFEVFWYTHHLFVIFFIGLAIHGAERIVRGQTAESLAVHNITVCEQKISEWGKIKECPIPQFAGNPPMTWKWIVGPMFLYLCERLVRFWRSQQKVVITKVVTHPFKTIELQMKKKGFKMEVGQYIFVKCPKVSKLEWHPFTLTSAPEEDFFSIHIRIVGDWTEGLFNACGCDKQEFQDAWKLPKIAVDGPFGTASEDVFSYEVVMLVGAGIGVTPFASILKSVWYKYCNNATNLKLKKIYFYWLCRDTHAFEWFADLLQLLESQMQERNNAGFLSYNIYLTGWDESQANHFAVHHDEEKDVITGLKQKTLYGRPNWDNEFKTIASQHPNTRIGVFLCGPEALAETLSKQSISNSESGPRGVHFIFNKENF
T1 sequence (P13498 2-195 limits assumed): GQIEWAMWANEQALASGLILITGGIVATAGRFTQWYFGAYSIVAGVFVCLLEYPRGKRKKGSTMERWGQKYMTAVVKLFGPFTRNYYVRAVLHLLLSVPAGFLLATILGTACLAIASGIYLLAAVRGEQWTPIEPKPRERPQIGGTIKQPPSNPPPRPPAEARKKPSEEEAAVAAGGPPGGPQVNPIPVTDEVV
T1 sequence (P14598 whole entry): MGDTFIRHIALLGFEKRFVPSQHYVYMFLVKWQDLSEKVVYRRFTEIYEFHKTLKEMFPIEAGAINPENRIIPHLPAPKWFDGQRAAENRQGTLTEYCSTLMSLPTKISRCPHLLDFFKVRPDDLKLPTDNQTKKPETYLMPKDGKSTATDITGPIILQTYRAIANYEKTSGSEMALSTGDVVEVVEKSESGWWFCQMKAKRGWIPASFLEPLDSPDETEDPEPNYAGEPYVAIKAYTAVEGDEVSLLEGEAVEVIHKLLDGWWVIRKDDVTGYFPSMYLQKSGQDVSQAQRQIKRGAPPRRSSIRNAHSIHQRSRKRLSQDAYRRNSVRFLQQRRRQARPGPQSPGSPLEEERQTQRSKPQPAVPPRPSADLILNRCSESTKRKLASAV
T1 sequence (P19878 whole entry): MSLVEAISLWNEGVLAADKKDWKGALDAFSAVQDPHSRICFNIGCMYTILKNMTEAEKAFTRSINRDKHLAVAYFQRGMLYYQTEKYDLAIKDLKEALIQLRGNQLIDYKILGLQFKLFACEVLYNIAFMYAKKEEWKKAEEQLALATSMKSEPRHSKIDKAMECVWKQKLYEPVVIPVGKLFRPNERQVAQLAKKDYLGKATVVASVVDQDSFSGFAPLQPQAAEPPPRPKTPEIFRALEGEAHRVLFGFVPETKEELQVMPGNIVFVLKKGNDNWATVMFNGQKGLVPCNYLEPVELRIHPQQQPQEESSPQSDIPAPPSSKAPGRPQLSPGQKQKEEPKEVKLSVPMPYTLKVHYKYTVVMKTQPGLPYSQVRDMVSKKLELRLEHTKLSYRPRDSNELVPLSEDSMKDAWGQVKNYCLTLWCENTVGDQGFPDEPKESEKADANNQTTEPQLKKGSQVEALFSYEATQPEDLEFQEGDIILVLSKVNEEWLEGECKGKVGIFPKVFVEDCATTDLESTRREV
Method: Production of O2^- by NADPH oxidase may be monitored in a cell-free system at 25° C. by following the superoxide dismutase (SOD)-inhibitable reduction of cytochrome c at […], as described in Curnutte, et al., PNAS USA 86: 825-829 (1989). The method may be described essentially as follows.
Activation of the dormant respiratory burst oxidase in a cell-free system by SDS in the presence of cytosol (or partially-purified cytosol factor components) was monitored by measuring O2^- production by the activated oxidase. O2^- generation was determined by a continuous assay in which superoxide dismutase-inhibitable cytochrome c reduction was followed with time at 25° C. in a double-beam spectrophotometer at 550 nm by a modification of the method described in Curnutte, et al., J. Biol. Chem. 262: 6450-6452 (1987). Assay mixtures contained (final concentration) 0.15 mM cytochrome c, 6.5 mM MgCl2, 87 mM KCl, 2.6 mM NaCl, 8.7 mM PIPES (pH 7.3), 0.27 mM ATP (Sigma), 0.33 mM EGTA, 0.16 mM NADPH, and 0.04 mM SDS, plus 0.9×10^7 cell eq of cytosol and 1.55×10^6 cell eq of membranes solubilized in deoxycholate (0.94 mM) in 375 μl. The reference cuvette also received 22.5 μg of superoxide dismutase. All components except NADPH were mixed in the cuvette and allowed to stand for 3.5 minutes to allow activation of the oxidase by SDS. Reactions were then started with NADPH and followed at 550 nm on a Uvikon 810 dual-beam recording spectrophotometer (Kontron, Zurich). Data were collected on a strip chart recorder and the maximal velocity of the reaction, which occurred during the first 20 sec, was used to calculate the oxidase activity.
A modification of the above-noted method was used for most of the studies described herein and may be summarized as follows. Reaction mixtures (generally, in 96-well microtiter plates) typically contain 0.1 mM cytochrome c, 6.5 mM MgCl2, 87 mM KCl, 2.6 mM NaCl, 8.7 mM PIPES (pH 7.3), 10 μM GTPγS, 0.16 mM NADPH, and 4×10^5 cell equivalents (cell eq) of neutrophil membranes (about 1.6 μg protein), in a total volume of 150 μl. In addition, reactions contain varying amounts of recombinant LMWG protein, and either (1) 8 μl (7.2×10^5 cell eq.; about 18 μg protein) of neutrophil cytosol, or (2) 100 nM each of baculovirus recombinant p47-phox and p67-phox as specified herein. Control wells (paired with each reaction well) contained 9 μg SOD, to account for non-O2^- -dependent reduction of cytochrome c. Superoxide production is initiated by the addition of SDS to give a final concentration of either 90 μM (with recombinant p47-phox/p67-phox) or 110 μM (with neutrophil cytosol). Maximum rates of absorbance change, calculated from the first derivative of the time course using Softmax software (Molecular Devices, release 2.01, Menlo Park, Calif., were converted to nmol O2^- generated/min/10^7 cell eq of membrane, after subtracting the rate achieved in the presence of SOD from that obtained in its absence, to give the rate of O2^- -dependent cytochrome c reduction, by using an extinction coefficient of 20.5 mM^-1 cm^-1 for reduced minus oxidized cytochrome c, a value determined experimentally for the 550±1-nm filter used in the kinetic microplate reader and the path length of the 250-μl reaction mixture. (See, e.g., Curnutte, et al., PNAS USA 86: 825-829 (1989).
Peptides were tested for oxidase inhibiting activity using the cell-free assay of Curnutte, et al. (PNAS USA 86: 825-829 (1989)). Peptides were added at indicated concentrations and incubated for five minutes at room temperature prior to initiation of O2^- formation using either 90 μM SDS or 100 μM arachidonic acid as an activating stimulus.

Rap1A = molecular target: T2, Rap1A (Homo sapiens, UniProt P62834); assay: guanine nucleotide (GDP/GTP) exchange; assay type: biochemical
T2 construct: Recombinant full length Rap1a, H-Ras, and CDC42Hs were purified after expression in a baculovirus/Sf9 insect cell system; made in house; host or cells: baculovirus/Sf9 insect cells
T2 sequence (P62834 1-184): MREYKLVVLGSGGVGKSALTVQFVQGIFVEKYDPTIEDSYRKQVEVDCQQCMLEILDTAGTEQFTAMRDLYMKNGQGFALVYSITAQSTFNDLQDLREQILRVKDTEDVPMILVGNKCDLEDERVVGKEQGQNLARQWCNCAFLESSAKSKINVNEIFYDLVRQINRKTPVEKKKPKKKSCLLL

Rac2 protein = Rac2 protein (Homo sapiens, UniProt P15153); assay: guanine nucleotide (GDP/GTP) exchange; assay type: biochemical; settings: FIG. 4

Row | Compound | Inhibitory Activity (NADPH oxidase [2]) | Percent Inhibition (NADPH oxidase [2]; 100 μg/ml peptide) [%] | also measured
1 | c1ccc2c(c1)[I+]c1ccccc1-2 [diphenylene iodonium, reference compound] | – | – | inhibition of O2- formation when added after initiation with SDS (NADPH oxidase [1]; added 1.7 or 5 minutes after SDS, p190 GAP 350 nM, DPI 1 μM, FIG. 9): could be inhibited
2 | CPPPVKKRKRK [Rac1 aa178-188, CPPPVKKRKRK] | Active | – | –
3 | CPQPTRQQKRA [Rac2 aa178-188, CPQPTRQQKRA] | Active | – | –
4 | EKKKPKKKS [Rap1A aa172-180, EKKKPKKKS] | Active | – | –
5 | EKLKEKKLTPI [Rac1 aa127-137, EKLKEKKLTPI] | Inactive | – | –
6 | GEHAQKHEQALQKLA [ECG 163, GEHAQKHEQALQKLA, reference compound] | Inactive | 8.0 | Percent Inhibition (NADPH oxidase [2]; 200 μg/ml peptide): 5.1%
7 | GELAQKLEQALQKLA [ECG 125, GELAQKLEQALQKLA, reference compound] | Inactive | 23.3 | Percent Inhibition (NADPH oxidase [2]; 200 μg/ml peptide): 34.0%
8 | GLAQKLLEALQKALLA [ICS4, GLAQKLLEALQKALLA] | Active | 99.8 | Percent Inhibition (NADPH oxidase [2]; 27 μg/ml peptide): 86.8%
9 | GLTISSLFSRLFGKKQ [ARF 26, GLTISSLFSRLFGKKQ] | – | 100 | Percent Inhibition (NADPH oxidase [2]; 27 μg/ml peptide): 30.9%
10 | GTPγS-bound form of RhoA: recombinant Sf9 cell RhoA bound to GTPγS | – | – | reversal of p190 GAP inhibition of NADPH oxidase by added GTP-binding protein (NADPH oxidase [1]; 280 nM p190 GAP, Rac1.GTPγS 30 nM, RhoA.GTPγS 100 nM, Rac2 (Q61L) 10 nM, FIG. 8): did not reverse inhibition
11 | INLKALAALAKKIL-NH2 [Mastoparan] | Active | – | inhibition of NADPH oxidase activity, in words (NADPH oxidase [2]; FIG. 1, dose/response conditions): most dramatic; GDP/GTP exchange on Rap1A (Rap1A): stimulate GDP/GTP exchange; GDP/GTP exchange on Rac (Rac2 protein): stimulate GDP/GTP exchange
12 | KNVFDEAILAALEPPEPKKSRR [CDC42Hs] | Inactive | – | –
13 | LTQRGLKTVFDE [Rac1 aa161-172, LTQRGLKTVFDE] | Inactive | – | –
14 | MGCTVSAEDKAAAER [Gi #5, MGCTVSAEDKAAAER, reference compound] | Inactive | – | –
15 | PGKARKKSS [Rap1B aa172-180, PGKARKKSS] | Active | – | –
16 | SKFEDLNKRKDT [Gi #2, SKFEDLNKRKDT, reference compound] | Inactive | – | –
17 | SSLFSRLFGKKQ [ARF 28, SSLFSRLFGKKQ] | – | 87.6 | Percent Inhibition (NADPH oxidase [2]; 27 μg/ml peptide): 43.5%
18 | TISSLFSRLFGKKQ [ARF 27, TISSLFSRLFGKKQ] | – | 91.3 | Percent Inhibition (NADPH oxidase [2]; 27 μg/ml peptide): 55.9%
